Like-named read-outs stand apart in the source and are kept apart here. Residues, ends and D or L forms follow the SMILES beside them. *: point of attachment. Palmitoyl = CCCCCCCCCCCCCCCC(=O)*
Legend:
[1] = target: T1, Cx43 HCs (B16-BL6 cells endogenously expressing Cx43) (Mus musculus, UniProt P23242); experiment: ATP release assay in B16-BL6 cells, hemichannels opened by calcium depletion; assay type: cell-based, murine
T1 construct: a murine melanoma cell line endogenously expressing Cx43; endogenous in cells; host or cells: B16-BL6 mouse melanoma cells
Procedure: The inhibitory capacity of the peptides on connexin HC activity was determined in vitro by measuring ATP release triggered by a depletion of extracellular Ca^2+, hereafter called “calcium-free” condition.[60] The assays were performed on B16-BL6 cells, a murine melanoma cell line endogenously expressing Cx43.[61] To measure ATP release, B16-BL6 cells were rinsed with a physiological Hanks' balanced salt solution (HBSS; control) followed by incubation for 5 minutes in HBSS containing the peptides. After rinsing with calcium-free HBSS (Ca-free), the cells were incubated with Ca-free containing the peptides for 30 minutes. Positive and negative control conditions included 30 minute incubation with HBSS, Ca-free without peptides or Ca-free containing 25 μM of the non-selective small-molecule inhibitor Cbx. ATP release in the supernatant was measured by bioluminescence. In order to determine the optimal concentration of peptides to be used in the assays, an initial round of testing was conducted on the control peptides αCT1, Gap27,[62]Gap19 (ref. [15]) and TAT-Gap19 (ref. [15]) as well as Cbx.[63] A doubling of ATP release was observed 30 minutes after the switch to the calcium-free solution, indicating effective Cx43 HC channel opening under these conditions (Fig. 5a and Table S1 ^†). As expected, the nonspecific connexin HC inhibitor Cbx (25 μM) reduced calcium-free-induced ATP release to nearly control conditions. At a high concentration (100 μM), Gap19, Gap27 and αCT1 had minimal to no effect on ATP release while TAT-Gap19 had the opposite effect inducing the release of ATP to a similar extent as the detergent Triton X-100 (1%). This might be due to the presence of the CPP motif, causing some disturbance at the level of the cellular membrane, and correlated with the previous findings on the use of the peptide at high concentrations.[64,65] […]
ATP release assays were performed using previously described methods.[60] […] ATP release under each condition was expressed as the percentage of calcium-free-induced ATP release. […]

[2] = tested on: parental HeLa cells (no endogenous connexins); experiment: ATP release assay in parental HeLa cells (selectivity); assay type: cell-based, human; conditions: calcium-free conditions, N = 3
Text: (§1) Two cell types were chosen to assess the specificity of the Cx43 analogues. HeLa cells derived from human cervical cancer are the oldest and most commonly used immortalized cells. These cells are so-called communication-incompetent, i.e. known to not endogenously express connexins,[71] while SK-HEP-1 cells, a human liver sinusoid endothelial cell line, are devoid of Cx43 but express a small amount of Cx45.[72] Together with these parental cells, HeLa cells and SK-HEP-1 cells stably transfected with Cx43 were used (HeLa–Cx43 (ref. [73]) and SK-HEP-1–Cx43,[72] respectively). The presence and absence of Cx43 in the different cell lines were confirmed by Western blotting (Fig. 8a). The specificity of the control peptides Gap27, TAT-Gap19, αCT1 as well as the cyclic analogue 11 for Cx43 HCs was assessed through ATP release measurements in these pairs of cells, and is shown in Fig. 8b (and Table S4 ^†) for parental and HeLa–Cx43 cells and in Fig. 8c (and Table S5 ^†) for parental and SK-HEP-1–Cx43 cells. No induction of ATP release was observed when parental HeLa cells were exposed to calcium-free conditions. […] However, a doubling of ATP release was observed when parental SK-HEP-1 cells were exposed to calcium-free conditions, which was attenuated by the treatment with Cbx and all peptides, indicating an effect of the compounds on Cx45 HC. […] Nonetheless, the cardioprotective properties of αCT1 are generally ascribed to its interaction with the Cx43 protein,[23] thus it is reasonable to assume that these properties will be retained by the proteolytically stable 10 peptide.
(§2) ATP release assays were performed using previously described methods.[60] Briefly, B16-BL6 cells, HeLa cells or SK-HEP-1 cells were seeded into 96-well plates and grown until they reached confluence. […] The cells were then washed with calcium-free HBSS and incubated with aforementioned compounds in calcium-free HBSS for 30 minutes. Supernatants were collected and ATP bioluminescence measurements were performed using an ATP bioluminescence kit (Sigma-Aldrich) according to the manufacturer's instructions. ATP release under each condition was expressed as the percentage of calcium-free-induced ATP release. ATP release of cells incubated with HBSS was used as a control for basal ATP release. Triplicates were performed for each independent experiment.

[3] = target: T2, Cx43 HCs (HeLa–Cx43 cells) (Homo sapiens, UniProt P17302); experiment: ATP release assay in HeLa–Cx43 transfectants (selectivity); assay type: cell-based; conditions: for ATP release, mean (Table S4, Fig. 8b), HeLa-Cx43: calcium-free conditions, N = 3
T2 construct: expressed in transfected cells
Text: as §1, §2

[4] = target: T3, Cx45 HC (parental SK-HEP-1 cells, devoid of Cx43) (Homo sapiens, UniProt P36383); experiment: ATP release assay in parental SK-HEP-1 cells (selectivity); assay type: cell-based; conditions: calcium-free conditions, N = 3
T3 construct: are devoid of Cx43 but express a small amount of Cx45; endogenous in cells; host or cells: parental SK-HEP-1 cells
Text: as §1, §2

[5] = tested on: Cx43 HCs (SK-HEP-1–Cx43 cells); experiment: ATP release assay in SK-HEP-1–Cx43 transfectants (selectivity); assay type: cell-based, human; conditions: calcium-free conditions, N = 3
Text: as §1, §2

Cx43 HC = conditions: cited from earlier work
Procedure: The inhibitory capacity of the peptides on connexin HC activity was determined in vitro by measuring ATP release triggered by a depletion of extracellular Ca^2+, hereafter called “calcium-free” condition.[60] The assays were performed on B16-BL6 cells, a murine melanoma cell line endogenously expressing Cx43.[61] To measure ATP release, B16-BL6 cells were rinsed with a physiological Hanks' balanced salt solution (HBSS; control) followed by incubation for 5 minutes in HBSS containing the peptides. After rinsing with calcium-free HBSS (Ca-free), the cells were incubated with Ca-free containing t ...

physchem = assay type: physicochemical; conditions: water
cardiac endothelium = conditions: binding to markers on the cell surface of the cardiac endothelium; cited from earlier work
Text: To further increase the therapeutic potential of a drug candidate, targeted delivery to the organ or tissue of interest after systemic treatment is highly desirable. The use of homing peptides, i.e. peptides that selectively bind to markers expressed on the surface of different cell types, can increase the specificity and efficacy of drug delivery, while reducing the side effects linked to off-target interactions. A wide variety of peptides homing to different tissues and pathological conditions has been identified, mostly through phage-display techniques, and used as delivery vehicles for dru ...

[6] = set-up: method as in PMID 34063001; conditions: mouse serum; cited from earlier work
[7] = peptide applied extracellularly, read-out: IC50 on Cx43-mediated ATP release

T1 sequence (P23242 whole entry): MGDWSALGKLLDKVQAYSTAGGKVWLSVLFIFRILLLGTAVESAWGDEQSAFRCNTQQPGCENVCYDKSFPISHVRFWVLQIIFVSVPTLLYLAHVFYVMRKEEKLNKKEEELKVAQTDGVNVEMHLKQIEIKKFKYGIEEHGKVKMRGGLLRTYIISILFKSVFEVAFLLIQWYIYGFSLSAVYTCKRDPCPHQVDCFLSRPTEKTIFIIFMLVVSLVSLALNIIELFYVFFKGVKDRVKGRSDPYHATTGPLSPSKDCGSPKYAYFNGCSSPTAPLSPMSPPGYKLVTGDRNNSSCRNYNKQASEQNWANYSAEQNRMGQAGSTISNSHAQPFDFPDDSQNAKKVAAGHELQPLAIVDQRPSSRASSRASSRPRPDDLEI
T2 sequence (P17302 whole entry): as the sequence (P23242 whole entry) above, with E124D, V164I, R243K, T251S, P253A, S257A, P263Q, S341N, A344S, V347L counted along it
T3 sequence (P36383 whole entry): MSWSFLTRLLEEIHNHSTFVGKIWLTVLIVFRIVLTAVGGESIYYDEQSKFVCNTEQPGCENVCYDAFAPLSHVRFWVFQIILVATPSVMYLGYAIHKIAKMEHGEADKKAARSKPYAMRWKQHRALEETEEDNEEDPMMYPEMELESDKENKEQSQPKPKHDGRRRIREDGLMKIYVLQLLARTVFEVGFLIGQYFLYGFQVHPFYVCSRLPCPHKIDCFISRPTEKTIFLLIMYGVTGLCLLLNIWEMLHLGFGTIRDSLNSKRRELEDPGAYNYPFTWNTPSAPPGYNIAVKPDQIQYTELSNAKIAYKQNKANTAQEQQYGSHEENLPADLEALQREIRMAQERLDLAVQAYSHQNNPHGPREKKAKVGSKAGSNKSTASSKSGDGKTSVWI

| Compound | reduction of calcium-free-induced ATP release in HeLa–Cx43 cells ([3]; peptide 5 μM) | ATP release, mean (Table S4, Fig. 8b), HeLa-Cx43 ([3]; peptide 5 μM) [nM] | ATP release, mean (Table S5, Fig. 8c), Parental SK-HEP-1 ([4]; peptide 5 μM) [nM] | ATP release, mean (Table S4, Fig. 8b), Parental HeLa ([2]; peptide 5 μM) [nM] | ATP release, mean (Table S5, Fig. 8c), SK-HEP-1-Cx43 ([5]; peptide 5 μM) [nM] | also measured |
| --- | --- | --- | --- | --- | --- | --- |
| CC1(C)[C@@H](OC(=O)CCC(=O)O)CC[C@]2(C)[C@H]3C(=O)C=C4[C@@H]5C[C@@](C)(C(=O)O)CC[C@]5(C)CC[C@@]4(C)[C@]3(C)CC[C@@H]12 [Cbx, carbenoxolone] |  |  |  |  |  | ATP release, mean normalized to calcium-free condition (Table S2, Fig. 5b) ([1]; Cbx 25 μM, calcium-free 30 min, N = 3–9): 60.4766%; ATP release, mean normalized to calcium-free condition (Table S3, Fig. 6b) ([1]; Cbx 25 μM, calcium-free 30 min, N = 5–10): 78.1965%; ATP release, mean (Table S4, Fig. 8b), Parental HeLa ([2]; Cbx 25 μM): 0.9207 nM; inhibition of calcium-free-induced ATP release in HeLa–Cx43 cells (in words) ([3]; Cbx 25 μM): completely inhibited; ATP release, mean (Table S4, Fig. 8b), HeLa-Cx43 ([3]; Cbx 25 μM): 2.1867 nM; ATP release, mean (Table S5, Fig. 8c), Parental SK-HEP-1 ([4]; Cbx 25 μM): 13.9931 nM; ATP release, mean (Table S5, Fig. 8c), SK-HEP-1-Cx43 ([5]; Cbx 25 μM): 26.4826 nM |
| CC[C@H](C)[C@H](NC(=O)[C@H](CCC(=O)O)NC(=O)[C@@H](NC(=O)[C@H](CCC(N)=O)NC(=O)[C@@H](N)CCCCN)[C@@H](C)CC)C(=O)N[C@@H](CCCCN)C(=O)N[C@@H](CCCCN)C(=O)N[C@@H](Cc1ccccc1)C(=O)N[C@@H](CCCCN)C(=O)O [Gap19, H-KQIEIKKFK-OH] (H-KQIEIKKFK-OH) |  |  |  |  |  | IC50 (Cx43 HC; intracellular application via whole-cell recording pipette, read-out: IC50 when applied intracellularly via a whole-cell recording pipette): 7 µM; IC50 (Cx43 HC; [7]): ~50 µM |
| CC[C@H](C)[C@H](NC(=O)[C@@H](NC(=O)[C@H](Cc1ccccc1)NC(=O)[C@@H](NC(=O)[C@@H](NC(=O)[C@H](CCCCN)NC(=O)[C@H](CCC(=O)O)NC(=O)[C@@H](NC(=O)[C@@H]1CCCN1C(=O)[C@H](CCCNC(=N)N)NC(=O)[C@@H](N)CO)[C@@H](C)O)[C@@H](C)O)[C@@H](C)CC)[C@@H](C)CC)C(=O)O [Gap27] (H-SRPTEKTIFII-OH) | 40–45% | 9.3690 | 8.5784 | 0.9529 | 36.9304 |  |
| CCCCCCCCCCCCCCCC(=O)N[C@@H](CCCCN)C(=O)N[C@@H](CCC(N)=O)C(=O)N[C@H](C(=O)N[C@@H](CCC(=O)O)C(=O)N[C@H](C(=O)N[C@@H](CCCCN)C(=O)N[C@@H](CCCCN)C(=O)N[C@@H](Cc1ccccc1)C(=O)N[C@@H](CCCCN)C(=O)O)[C@@H](C)CC)[C@@H](C)CC [Palm-Gap19] (Palmitoyl-KQIEIKKFK-OH) |  |  |  |  |  | solubility (physchem): ≥ 100 µM |
| CC[C@H](C)[C@H](NC(=O)[C@H](CCC(=O)O)NC(=O)[C@@H](NC(=O)[C@H](CCC(N)=O)NC(=O)[C@H](CCCCN)NC(=O)[C@H](CCCNC(=N)N)NC(=O)[C@H](CCCNC(=N)N)NC(=O)[C@H](CCCNC(=N)N)NC(=O)[C@H](CCC(N)=O)NC(=O)[C@H](CCCNC(=N)N)NC(=O)[C@H](CCCNC(=N)N)NC(=O)[C@H](CCCCN)NC(=O)[C@H](CCCCN)NC(=O)[C@H](CCCNC(=N)N)NC(=O)CNC(=O)[C@@H](N)Cc1ccc(O)cc1)[C@@H](C)CC)C(=O)N[C@@H](CCCCN)C(=O)N[C@@H](CCCCN)C(=O)N[C@@H](Cc1ccccc1)C(=O)N[C@@H](CCCCN)C(=O)O [TAT-Gap19] (H-YGRKKRRQRRRKQIEIKKFK-OH) | 40–45% | 10.9629 | 15.3639 | 1.3701 | 55.5511 | IC50 (Cx43 HC; [7]): 7 µM |
| CRPPR [cardiac endothelium-homing pentapeptide] |  |  |  |  |  | selectivity of targeting the heart (cardiac endothelium): > 300 fold |
| H-RPRPDDLEI-OH [αCT11] |  |  |  |  |  | time in which the peptide was found to be degraded [6]: 30 min |
| Triton X-100 |  |  |  |  |  | ATP release, mean normalized to calcium-free condition (Table S1, Fig. 5a) ([1]; Triton X-100 1%, cell lysis control, N = 3–9): 248.6069% |

More lines, main results first:

| reduction of calcium-free-induced ATP release in HeLa–Cx43 cells ([3]; peptide 5 μM) | ATP release, mean (Table S4, Fig. 8b), HeLa-Cx43 ([3]; peptide 5 μM) [nM] | ATP release, mean (Table S5, Fig. 8c), Parental SK-HEP-1 ([4]; peptide 5 μM) [nM] | Compound | ATP release, mean (Table S4, Fig. 8b), Parental HeLa ([2]; peptide 5 μM) [nM] | ATP release, mean (Table S5, Fig. 8c), SK-HEP-1-Cx43 ([5]; peptide 5 μM) [nM] | also measured |
| --- | --- | --- | --- | --- | --- | --- |
| 40–45% | 8.7419 | 7.9522 | CC(=O)N[C@@H](CO)C(=O)N[C@@H](CCCNC(=N)N)C(=O)N1CCC[C@H]1C(=O)N[C@@H](CCCNC(=N)N)C(=O)N1C[C@@H]2C[C@H]1C(=O)N[C@@H](CC(=O)O)C(=O)N[C@@H](CC(=O)O)C(=O)N[C@@H](CC(C)C)C(=O)N[C@@H](CCC(=O)O)C(=O)N[C@H](C(N)=O)Cc1cn2nn1 [compound 11] | 1.5371 | 38.4712 |  |
| 40–45% | 9.6282 | 6.6804 | H-RQPKIWFPNRRKPWKKRPRPDDLEI-OH [αCT1] | 1.6218 | 39.5655 |  |
